Ten compounds from ChEMBL document CHEMBL3132750, “4-Chlorocolchicine derivatives bearing a thiourea side chain at the C-7 position as potent anticancer agents” (Medchemcomm, 2014) can be followed below.

A word on the IC50: it is the midpoint of a concentration-inhibition curve.

Data set [1] deals with HT-29. Put plainly: Cytotoxicity against human HT-29 cells assessed as inhibition of cell proliferation after 96 hrs. The data set is classed as functional, cell-based. The settings on record: HT-29, 96 h.
Data set [2] has as its system Mus musculus. The experiment in a line: Toxicity in human HCT116 cells xenografted in BALB/C nude mouse assessed as mouse mortality at 50 mg/kg, iv administered three times on days 1, 5, and 9. The data set is classed as organism-based, HCT-116. The arrangement: dose 50 mg/kg, route intravenous. The settings on record: in vivo. A general note: In xenograft studies the graft and the host belong to different species.

In data set [3] the test system is Mus musculus. Put plainly: Toxicity in human HCT116 cells xenografted in BALB/C nude mouse assessed as mouse mortality at 25 mg/kg, iv administered three times on days 1, 5, and 9. The data set is classed as organism-based, HCT-116. On the set-up: dose 25 mg/kg, route intravenous. The settings on record: in vivo.
The subject of data set [4] is HCT-116. The experiment in a line: Antitumor activity against human HCT116 cells xenografted in BALB/C nude mouse assessed as tumor growth inhibition rate at 25 mg/kg, iv administered three times on days 1, 5, and 9. The data set is classed as functional. The settings on record: read-out: TGI.
Data set [5] deals with HCT-116. The experiment in a line: Cytotoxicity against human HCT116 cells assessed as inhibition of cell proliferation after 96 hrs. The data set is classed as functional, cell-based. The settings on record: HCT-116, 96 h.
Data set [6] in a line: Metabolic stability in BALB/c mouse hepatic microsomes assessed per mg of microsomal protein at 1 umol/L preincubated for 5 mins by LC-MS/MS method. Type of data set: ADME, Liver, Microsome. The settings on record: 1 µM.
Data set [7] relates to HCT-116. The experiment in a line: Antitumor activity against human HCT116 cells xenografted in BALB/C nude mouse assessed as tumor growth inhibition rate at 50 mg/kg, iv administered three times on days 1, 5, and 9. The data set is classed as functional. The settings on record: read-out: TGI.
For data set [8], the system named is Mus musculus. Put plainly: Toxicity in human HCT116 cells xenografted in BALB/C nude mouse assessed as weight loss at 25 mg/kg, iv administered three times on days 1, 5, and 9. Type of data set: organism-based, HCT-116. The arrangement: dose 25 mg/kg, route intravenous. The settings on record: in vivo.
Data set [9] deals with Mus musculus. Put plainly: Toxicity in human HCT116 cells xenografted in BALB/C nude mouse assessed as weight loss at 50 mg/kg, iv administered three times on days 1, 5, and 9. The arrangement: dose 50 mg/kg, route intravenous. The data set is classed as organism-based, HCT-116. The settings on record: in vivo.
Data set [10] concerns A549. Put plainly: Cytotoxicity against human A549 cells assessed as inhibition of cell proliferation after 96 hrs. Type of data set: functional, cell-based. The settings on record: A549, 96 h.
Data set [11] concerns Mus musculus. Put plainly: Toxicity in human HCT116 cells xenografted in BALB/C nude mouse assessed as weight loss at 10 mg/kg, iv administered three times on days 1, 5, and 9. Type of data set: organism-based, HCT-116. The arrangement: dose 10 mg/kg, route intravenous. The settings on record: in vivo.
Data set [12] relates to HCT-116. The experiment in a line: Antitumor activity against human HCT116 cells xenografted in BALB/C nude mouse assessed as tumor growth inhibition rate at 10 mg/kg, iv administered three times on days 1, 5, and 9. Type of data set: functional. The settings on record: read-out: TGI.
Data set [13] deals with Mus musculus. Put plainly: Toxicity in human HCT116 cells xenografted in BALB/C nude mouse assessed as mouse mortality at 10 mg/kg, iv administered three times on days 1, 5, and 9. Type of data set: organism-based, HCT-116. On the set-up: dose 10 mg/kg, route intravenous. The settings on record: in vivo.
For data set [14], the system named is Mus musculus. Put plainly: Toxicity in human HCT116 cells xenografted in BALB/C nude mouse assessed as mouse mortality at 20 mg/kg, iv administered three times on days 1, 5, and 9. On the set-up: dose 20 mg/kg, route intravenous. The settings on record: in vivo. The data set is classed as organism-based, HCT-116.
Data set [15] relates to Mus musculus. Put plainly: Toxicity in human HCT116 cells xenografted in BALB/C nude mouse assessed as weight loss at 20 mg/kg, iv administered three times on days 1, 5, and 9. The data set is classed as organism-based, HCT-116. The arrangement: dose 20 mg/kg, route intravenous. The settings on record: in vivo.
The test system of data set [16] is HCT-116. The experiment in a line: Antitumor activity against human HCT116 cells xenografted in BALB/C nude mouse assessed as tumor growth inhibition rate at 20 mg/kg, iv administered three times on days 1, 5, and 9. The data set is classed as functional. The settings on record: read-out: TGI.
Data set [17] has as its target Tubulin (Sus scrofa, UniProt P02554+P02550). Put plainly: Inhibition of tubulin polymerization assessed as reduction in tubulin assembly after 5 mins using pig microtubule protein by spectrophotometry. Type of data set: protein assay.
Data set [18] relates to HCT-116. Put plainly: Antitumor activity against human HCT116 cells xenografted in BALB/C nude mouse assessed as tumor growth inhibition rate at 40 mg/kg, iv administered three times on days 1, 5, and 9. The settings on record: read-out: TGI. The data set is classed as functional.
Data set [19] relates to Mus musculus. The experiment in a line: Toxicity in human HCT116 cells xenografted in BALB/C nude mouse assessed as mouse mortality at 40 mg/kg, iv administered three times on days 1, 5, and 9. On the set-up: dose 40 mg/kg, route intravenous. The settings on record: in vivo. Type of data set: organism-based, HCT-116.
Data set [20] relates to Mus musculus. Put plainly: Toxicity in human HCT116 cells xenografted in BALB/C nude mouse assessed as weight loss at 40 mg/kg, iv administered three times on days 1, 5, and 9. The data set is classed as organism-based, HCT-116. The arrangement: dose 40 mg/kg, route intravenous. The settings on record: in vivo.

As to `COc1c(Cl)c2c(c(OC)c1OC)-c1ccc(OC)c(=O)cc1[C@@H](NC(=S)N1CCOCC1)CC2`, the IC50 worked out at 7.2 nM in [1], 9.1 nM in data set [5] and 44.9 nM in data set [10]. The Activity entry in data set [2], in data set [3], in data set [8] and in data set [9] was “Non-toxic” in each case. Moreover, the inhibition in vivo at 25 mg/kg in [4] was found to be 31.3%. Besides, the Intrinsic clearance in data set [6] is 61 µL/min/mg. Also, the inhibition in vivo at 50 mg/kg in data set [7] was determined as 52.7%.
Take `CCN(CC)C(=S)N[C@H]1CCc2c(Cl)c(OC)c(OC)c(OC)c2-c2ccc(OC)c(=O)cc21`: the IC50 in data set [1] came out at 6.1 nM; in data set [5] it was 6.9 nM; in [10], 10.1 nM. In addition, the Activity result in [2], in data set [3], in data set [8] and in data set [9] was “Non-toxic” each time. Also, the inhibition in vivo at 25 mg/kg in data set [4] is 29.5%. The Intrinsic clearance in [6] is 541 µL/min/mg. For the same compound, in data set [7], the inhibition in vivo at 50 mg/kg stood at 54.6%.
Turning to `COc1c(Cl)c2c(c(OC)c1OC)-c1ccc(OC)c(=O)cc1[C@@H](NC(=S)Nc1n[nH]c(C)n1)CC2`, the IC50 amounted to 0.3 nM in [1], 0.5 nM in data set [5] and 1.7 nM in data set [10]. Besides, the Intrinsic clearance in data set [6] was determined as 223 µL/min/mg.
In the case of `COc1c(Cl)c2c(c(OC)c1OC)-c1ccc(OC)c(=O)cc1[C@@H](NC(=S)Nc1ccn(C)n1)CC2`, the half-maximal inhibitory concentration (IC50) in data set [1] was found to be 0.7 nM; in data set [5], 1.3 nM; in data set [10] it was 5.8 nM. Also, in [6], the Intrinsic clearance was determined as 37 µL/min/mg.
Take `CCS(=O)(=O)N[C@H]1CCc2c(Cl)c(OC)c(OC)c(OC)c2-c2ccc(OC)c(=O)cc21`: the values for the IC50 in data set [1], in data set [5] and in data set [10] were 42.6 nM, 39.9 nM and 48.1 nM, respectively. For the same compound, in [6], the Intrinsic clearance stood at 5 µL/min/mg.
Consider `COc1c(Cl)c2c(c(OC)c1OC)-c1ccc(OC)c(=O)cc1[C@@H](NC(=O)N1CCCCC1)CC2`, for which the IC50 in data set [1] was 42.6 nM; in data set [5], 42.4 nM; in data set [10] it was 26.6 nM. Moreover, the Intrinsic clearance in [6] was found to be 43 µL/min/mg.
Take `COc1c(Cl)c2c(c(OC)c1OC)-c1ccc(OC)c(=O)cc1[C@@H](NC(C)=O)CC2`: the IC50 in [1] turned out to be 7.9 nM; in data set [5], 8.1 nM; in [10] it was 9.9 nM. This compound also gave an Intrinsic clearance in data set [6] of 28 µL/min/mg.
On to `COc1c(Cl)c2c(c(OC)c1OC)-c1ccc(OC)c(=O)cc1[C@@H](NC(=S)Nc1ccc(N(C)C)cc1)CC2`, for which the Activity result in data set [11], in [13], in data set [14] and in data set [15] was “Non-toxic” throughout. Further, the IC50 in data set [1] is 0.3 nM; in data set [5], 1.1 nM; in data set [10] it was 1.8 nM. Moreover, the inhibition in vivo at 10 mg/kg in data set [12] is 32.6%. In data set [6], this compound registered an Intrinsic clearance of 152 µL/min/mg. Moreover, the inhibition in vivo at 20 mg/kg in data set [16] is 52.5%.
In the case of `COc1c(Cl)c2c(c(OC)c1OC)-c1ccc(OC)c(=O)cc1[C@@H](NC(=S)Nc1cc(C)[nH]n1)CC2`, the IC50 in data set [1] is 0.3 nM; in data set [5], 0.3 nM; in data set [10], 2 nM; in data set [17] it was 1110 nM. In data set [6], this compound returned an Intrinsic clearance of 4 µL/min/mg.
Consider `CCNC(=S)N[C@H]1CCc2c(Cl)c(OC)c(OC)c(OC)c2-c2ccc(OC)c(=O)cc21`, for which the inhibition in vivo at 40 mg/kg in data set [18] was 62.6%. In addition, the IC50 in data set [1] came to 8.6 nM; in [5], 7.9 nM; in data set [10] it was 37.9 nM; in [17] it was 2360 nM. Moreover, the Activity result in data set [19], in data set [14], in [15] and in data set [20] was “Non-toxic” each time. In [6], this compound displayed an Intrinsic clearance of 124 µL/min/mg. The inhibition in vivo at 20 mg/kg in data set [16] was determined as 44.4%.
